Among the test systems are HCC-2998 colon; HL-60(TB) leukemia; HS 578T breast; IGROV1 ovarian; MDA-MB-231 breast; NCI-H23 lung; SK-OV-3 ovarian; T-47D breast.
Common to all, as to assay: DTP human tumour cell line panel, 48 h

The term TGI denotes the concentration at which net growth stops. The low end stands for more potent growth arrest, the high end for less potent growth arrest.

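Assay format: 96-well plates, 48-hour exposure. TGI denotes the concentration required for complete inhibition of growth.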

Turning to `CC(=O)NC1c2ccccc2C(C)(C)C12CCC1(CC2)OCCO1` (stereo not drawn), the TGI in the test on HCC-2998 colon, with HL-60(TB) leukemia, in the test with HS 578T breast, with IGROV1 ovarian, with MDA-MB-231 breast and in the test on NCI-H23 lung was > 100 µM throughout. Further, the total growth inhibition concentration (TGI) in the test with SK-OV-3 ovarian was > 10 µM; in the test with T-47D breast, > 100 µM.

Take `CC(C)=CCNc1ncnc2c1ncn2CCC#N`: the TGI in the test on HCC-2998 colon, in the test with HL-60(TB) leukemia, in the test on HS 578T breast, with IGROV1 ovarian, in the test on MDA-MB-231 breast and with NCI-H23 lung was > 100 µM throughout. In addition, the TGI in the test on SK-OV-3 ovarian and in the test on T-47D breast was > 100 µM each time.

For `CN(C)c1ccc(C2SCC(=O)N2c2ccc(Oc3ccc(Cl)cc3)c(Cl)c2)cc1` (stereo not drawn), the TGI turned out to be 52.4 µM in the test with HCC-2998 colon; 58.7 µM in the test on HL-60(TB) leukemia; 40.4 µM with HS 578T breast; 92.5 µM with IGROV1 ovarian; 43.3 µM in the test on MDA-MB-231 breast; 45.4 µM with NCI-H23 lung. Besides, the TGI is 60.4 µM in the test with SK-OV-3 ovarian and 61 µM with T-47D breast.

As for `N#Cc1c(Cl)cc(Cl)n2c1nc1ccccc12`, the TGI with HCC-2998 colon was 8.44 µM; in the test with HL-60(TB) leukemia, > 31.1 µM; in the test with HS 578T breast it was 32.8 µM; in the test with IGROV1 ovarian, 38.7 µM; with MDA-MB-231 breast, 14.2 µM; with NCI-H23 lung it was 39.9 µM. Also, the TGI in the test on SK-OV-3 ovarian came out at 31.2 µM; with T-47D breast, 31.8 µM.

In the case of `O=C1C(=Cc2ccccc2O)N=C(c2ccccc2)N1n1c(-c2ccccc2)nc2ccccc2c1=O`, the TGI in the test with HCC-2998 colon is 89.2 µM; in the test on HL-60(TB) leukemia, 31.9 µM; with HS 578T breast, > 100 µM; in the test on IGROV1 ovarian it was > 100 µM; with MDA-MB-231 breast, > 100 µM; in the test with NCI-H23 lung, 89.5 µM. Further, the total growth inhibition concentration (TGI) in the test with SK-OV-3 ovarian was > 100 µM; with T-47D breast it was 93 µM.

With `CC(C)NC(=O)OCCN=c1c2ccccc2ccc2ccccc12`, the TGI in the test with HCC-2998 colon is > 100 µM; in the test with HL-60(TB) leukemia, 43.9 µM; in the test with HS 578T breast it was > 100 µM; with IGROV1 ovarian it was > 100 µM; in the test with MDA-MB-231 breast, > 100 µM; in the test on NCI-H23 lung, > 100 µM. For the same compound, the TGI in the test on SK-OV-3 ovarian is > 100 µM; in the test on T-47D breast, 67.6 µM.

For `CC(C)(C)OC(=O)NCCCNC1(c2cc3ccccc3s2)CCCCC1`, the total growth inhibition concentration (TGI) with HCC-2998 colon amounted to 14.3 µM; in the test with HL-60(TB) leukemia, 28 µM; with HS 578T breast, 45.7 µM; with IGROV1 ovarian, 32.2 µM; in the test on MDA-MB-231 breast, 40.1 µM; in the test on NCI-H23 lung, 26.4 µM. In addition, the results for the TGI with SK-OV-3 ovarian and in the test on T-47D breast were 26.2 µM and 39.7 µM, respectively.

For `CCN1CCC(O)(/C=C/c2ccc(C)cc2C)C(C(=O)/C=C/c2ccc(C)cc2C)C1` (stereo not drawn), the TGI with HCC-2998 colon was 3.37 µM; in the test on HL-60(TB) leukemia, > 100 µM; in the test with HS 578T breast, 5.38 µM; in the test with IGROV1 ovarian, 8.98 µM; in the test with MDA-MB-231 breast it was 4.32 µM; in the test on NCI-H23 lung, 7.86 µM. Also, the TGI was 26.7 µM in the test with SK-OV-3 ovarian and 8.01 µM in the test on T-47D breast.

As for `CC12CCC(O)CC1CCC1C2CCC2(C)C(C(=O)CC(O)C(F)(F)F)CCC12` (stereo not drawn), the TGI in the test on HCC-2998 colon was 80 µM; with HL-60(TB) leukemia, 47.5 µM; with HS 578T breast, > 80 µM; in the test with IGROV1 ovarian, > 100 µM; in the test with MDA-MB-231 breast, 98.2 µM; in the test with NCI-H23 lung it was > 100 µM. The TGI in the test on SK-OV-3 ovarian was 79.5 µM; with T-47D breast, > 100 µM.

On to `COc1ccc2c(cnc3c4cc(OC)c(OC)cc4ccc23)c1`, for which the TGI in the test on HCC-2998 colon, with HL-60(TB) leukemia, in the test with HS 578T breast, in the test on IGROV1 ovarian, with MDA-MB-231 breast and with NCI-H23 lung was > 100 µM in each case. The total growth inhibition concentration (TGI) in the test on SK-OV-3 ovarian and in the test on T-47D breast was > 100 µM throughout.

`CC(C(O)Cc1ccccc1)N(C)N=Nc1ccc([N+](=O)[O-])cc1` (stereo not drawn): the TGI with HCC-2998 colon is 32.2 µM; with HL-60(TB) leukemia, > 100 µM; with HS 578T breast it was 55.6 µM; with IGROV1 ovarian, 43.4 µM; in the test with MDA-MB-231 breast, 33.7 µM; with NCI-H23 lung it was 48.1 µM. For the same compound, the concentration for total growth inhibition (TGI) with SK-OV-3 ovarian was found to be 63.9 µM; in the test with T-47D breast, 74.5 µM.

Take `CC1=C(CO)C(=O)O[C@@H]([C@@H](CO)[C@H]2CCC3C4C[C@@H](O)[C@@]5(O)CC=CC(=O)[C@]5(C)C4CC[C@@]32C)C1` (stereo partly drawn): the TGI with HCC-2998 colon, in the test on HL-60(TB) leukemia, in the test with HS 578T breast, in the test with IGROV1 ovarian, in the test with MDA-MB-231 breast and in the test with NCI-H23 lung was > 100 µM each time. The total growth inhibition concentration (TGI) in the test on SK-OV-3 ovarian and in the test with T-47D breast was > 100 µM throughout.

Consider `O=C(O)/C=c1/c2ccccc2n2nc3ccccc3c12`, for which the TGI with HCC-2998 colon was 84.9 µM; with HL-60(TB) leukemia, 67.1 µM; with HS 578T breast it was 78.8 µM; with IGROV1 ovarian, > 100 µM; in the test with MDA-MB-231 breast, > 100 µM; with NCI-H23 lung, > 100 µM. The TGI with SK-OV-3 ovarian is 65.7 µM; in the test on T-47D breast, > 100 µM.

For the compound `C#C[C@]1(O)CC[C@H]2[C@@H]3CCC4=C/C(=N/OC(=O)c5cccc6c(=O)c7ccccc7[nH]c56)CC[C@@H]4[C@H]3CC[C@@]21C`, the TGI in the test with HCC-2998 colon is > 100 µM; with HL-60(TB) leukemia, 39.8 µM; in the test on HS 578T breast, > 100 µM; in the test with IGROV1 ovarian it was > 100 µM; in the test on MDA-MB-231 breast it was > 100 µM; in the test with NCI-H23 lung, > 100 µM. Besides, the results for the TGI in the test on SK-OV-3 ovarian and with T-47D breast were > 100 µM and 91.1 µM, respectively.

Consider `CC(=O)O[C@H]1CC[C@@]2(C)C(=CC[C@H]3[C@@H]4C[C@H](N5CCOCC5)[C@H](OC(C)=O)[C@@]4(C)CC[C@@H]32)C1`, for which the TGI in the test with HCC-2998 colon, with HL-60(TB) leukemia, with HS 578T breast, in the test with IGROV1 ovarian, in the test on MDA-MB-231 breast and in the test on NCI-H23 lung was > 100 µM each time. Moreover, the TGI in the test with SK-OV-3 ovarian and in the test with T-47D breast was > 100 µM in each case.

Regarding `C[N+]12CCCCC1C(CN1C(=O)Cc3c4ccccc4c(c4ccccc34)CC1=O)CCC2` (stereo not drawn), the concentration for total growth inhibition (TGI) in the test with HCC-2998 colon, in the test on HL-60(TB) leukemia, in the test with HS 578T breast, in the test with IGROV1 ovarian, in the test with MDA-MB-231 breast and with NCI-H23 lung was > 100 µM each time. Also, the concentration for total growth inhibition (TGI) in the test on SK-OV-3 ovarian and in the test with T-47D breast was > 100 µM throughout.

The record behind these values is PubChem BioAssay (NCI).
